Measured values taken from PubChem BioAssay (NCI).
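1) Cells in 96-well plates. 2) Compound, 48 h, 5 concentrations. 3) Linear interpolation between surrounding doses. 4) Unreached endpoint = highest concentration. TGI marks complete inhibition of growth.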

Key:
Experiment in all cases: inhibition of tumour cell growth, NCI panel, 48 h
SF-295 CNS = test system: SF-295 CNS
M14 melanoma = test system: M14 melanoma
UACC-62 melanoma = test system: UACC-62 melanoma
SK-MEL-2 melanoma = test system: SK-MEL-2 melanoma
MDA-MB-435 = test system: MDA-MB-435
TK-10 renal = test system: TK-10 renal
CCRF-CEM leukemia = test system: CCRF-CEM leukemia
PC-3 prostate = test system: PC-3 prostate
OVCAR-5 ovarian = test system: OVCAR-5 ovarian
A498 renal = test system: A498 renal
KM12 colon = test system: KM12 colon
786-0 renal = test system: 786-0 renal
SK-OV-3 ovarian = test system: SK-OV-3 ovarian
LOX IMVI melanoma = test system: LOX IMVI melanoma
K-562 leukemia = test system: K-562 leukemia
OVCAR-4 ovarian = test system: OVCAR-4 ovarian
OVCAR-3 ovarian = test system: OVCAR-3 ovarian

O=c1c2ccccc2nc(-c2ccccc2)n1/N=C/c1ccccc1[N+](=O)[O-]
TGI (SF-295 CNS): > 83.3 µM | TGI (M14 melanoma): > 100 µM | TGI (UACC-62 melanoma): > 100 µM | TGI (SK-MEL-2 melanoma): > 100 µM | TGI (MDA-MB-435): > 100 µM | TGI (TK-10 renal): > 59.6 µM | TGI (CCRF-CEM leukemia): > 100 µM | TGI (PC-3 prostate): > 100 µM | TGI (OVCAR-5 ovarian): > 100 µM | TGI (A498 renal): > 100 µM | TGI (KM12 colon): > 100 µM | TGI (786-0 renal): > 100 µM | TGI (SK-OV-3 ovarian): > 100 µM | TGI (LOX IMVI melanoma): > 100 µM | TGI (K-562 leukemia): > 100 µM | TGI (OVCAR-4 ovarian): > 100 µM | TGI (OVCAR-3 ovarian): > 100 µM

O=[N+]([O-])c1ccc(C2=NOC(c3ccccc3)N2C23CC4CC(CC(C4)C2)C3)cc1 (centres undefined)
TGI (SF-295 CNS): 66.6 µM | TGI (M14 melanoma): 88.4 µM | TGI (UACC-62 melanoma): 85.8 µM | TGI (SK-MEL-2 melanoma): 37.5 µM | TGI (MDA-MB-435): 44.5 µM | TGI (TK-10 renal): > 100 µM | TGI (CCRF-CEM leukemia): 47.5 µM | TGI (PC-3 prostate): 43.8 µM | TGI (OVCAR-5 ovarian): 53.2 µM | TGI (A498 renal): > 100 µM | TGI (KM12 colon): 71.9 µM | TGI (786-0 renal): 57.9 µM | TGI (SK-OV-3 ovarian): > 100 µM | TGI (LOX IMVI melanoma): 29.3 µM | TGI (K-562 leukemia): 39.9 µM | TGI (OVCAR-4 ovarian): > 100 µM | TGI (OVCAR-3 ovarian): 50.1 µM

CC(NC1=NCCO1)c1ccsc1 (centres undefined)
TGI (SF-295 CNS): 39.4 µM | TGI (M14 melanoma): 35.4 µM | TGI (UACC-62 melanoma): 34.3 µM | TGI (SK-MEL-2 melanoma): 50.2 µM | TGI (MDA-MB-435): 43.1 µM | TGI (TK-10 renal): > 100 µM | TGI (CCRF-CEM leukemia): 46.5 µM | TGI (PC-3 prostate): 57.8 µM | TGI (OVCAR-5 ovarian): > 100 µM | TGI (A498 renal): > 100 µM | TGI (KM12 colon): 36.1 µM | TGI (786-0 renal): 42.9 µM | TGI (SK-OV-3 ovarian): > 100 µM | TGI (LOX IMVI melanoma): 35 µM | TGI (K-562 leukemia): 68 µM | TGI (OVCAR-4 ovarian): > 100 µM | TGI (OVCAR-3 ovarian): 80.3 µM

COc1ccc(NCc2cccc3c(=O)c4ccc(Cl)cc4oc23)cc1
TGI (SF-295 CNS): > 100 µM | TGI (M14 melanoma): > 100 µM | TGI (UACC-62 melanoma): > 100 µM | TGI (SK-MEL-2 melanoma): > 100 µM | TGI (MDA-MB-435): > 100 µM | TGI (TK-10 renal): > 100 µM | TGI (CCRF-CEM leukemia): > 100 µM | TGI (PC-3 prostate): > 100 µM | TGI (OVCAR-5 ovarian): > 100 µM | TGI (A498 renal): > 100 µM | TGI (KM12 colon): > 100 µM | TGI (786-0 renal): > 100 µM | TGI (SK-OV-3 ovarian): > 100 µM | TGI (LOX IMVI melanoma): > 100 µM | TGI (K-562 leukemia): > 100 µM | TGI (OVCAR-4 ovarian): > 100 µM | TGI (OVCAR-3 ovarian): > 100 µM

CC(O)C1(O)C(O)CC(OC2c3cc4c(c(O)c3[C@@H]3C[C@@]2(C)OC32C=c3cc[nH]c3=N2)C(=O)c2cccc(O)c2C4=O)OC1C (some centres undefined)
TGI (SF-295 CNS): 5.73 µM | TGI (M14 melanoma): 2.73 µM | TGI (UACC-62 melanoma): 3.18 µM | TGI (SK-MEL-2 melanoma): 3.11 µM | TGI (MDA-MB-435): 3.14 µM | TGI (TK-10 renal): 7.32 µM | TGI (CCRF-CEM leukemia): 1.72 µM | TGI (PC-3 prostate): 4.86 µM | TGI (OVCAR-5 ovarian): 9.49 µM | TGI (A498 renal): 2.75 µM | TGI (KM12 colon): 3.77 µM | TGI (786-0 renal): 4.98 µM | TGI (SK-OV-3 ovarian): 9.47 µM | TGI (LOX IMVI melanoma): 3.17 µM | TGI (K-562 leukemia): 4.78 µM | TGI (OVCAR-4 ovarian): 7.2 µM | TGI (OVCAR-3 ovarian): 6.45 µM

CN1CCOC1(C)c1ccccc1 (centres undefined)
TGI (SF-295 CNS): > 100 µM | TGI (M14 melanoma): > 100 µM | TGI (UACC-62 melanoma): > 100 µM | TGI (SK-MEL-2 melanoma): > 100 µM | TGI (MDA-MB-435): > 100 µM | TGI (TK-10 renal): > 100 µM | TGI (CCRF-CEM leukemia): > 100 µM | TGI (PC-3 prostate): > 100 µM | TGI (OVCAR-5 ovarian): > 100 µM | TGI (A498 renal): > 100 µM | TGI (KM12 colon): > 100 µM | TGI (786-0 renal): > 100 µM | TGI (SK-OV-3 ovarian): > 100 µM | TGI (LOX IMVI melanoma): > 100 µM | TGI (K-562 leukemia): > 100 µM | TGI (OVCAR-4 ovarian): > 100 µM | TGI (OVCAR-3 ovarian): > 100 µM

CC1CCC2C(C)C(OC(=O)CCC(=O)O)OC3OC4(C)CCC1C32OO4 (centres undefined)
TGI (SF-295 CNS): > 100 µM | TGI (M14 melanoma): > 100 µM | TGI (UACC-62 melanoma): > 100 µM | TGI (SK-MEL-2 melanoma): 42.3 µM | TGI (MDA-MB-435): 13.6 µM | TGI (TK-10 renal): 14.7 µM | TGI (CCRF-CEM leukemia): 36 µM | TGI (PC-3 prostate): > 100 µM | TGI (OVCAR-5 ovarian): 57.8 µM | TGI (A498 renal): > 100 µM | TGI (KM12 colon): 23 µM | TGI (786-0 renal): > 100 µM | TGI (SK-OV-3 ovarian): > 100 µM | TGI (LOX IMVI melanoma): 2.92 µM | TGI (K-562 leukemia): 19.8 µM | TGI (OVCAR-4 ovarian): 27.7 µM | TGI (OVCAR-3 ovarian): > 100 µM

COC(=O)c1cc(C#N)[nH]c1-c1ccc(Br)s1
TGI (SF-295 CNS): 21.1 µM | TGI (M14 melanoma): 22.9 µM | TGI (UACC-62 melanoma): 26 µM | TGI (SK-MEL-2 melanoma): 18.6 µM | TGI (MDA-MB-435): 34.5 µM | TGI (TK-10 renal): 25.7 µM | TGI (CCRF-CEM leukemia): 49.9 µM | TGI (PC-3 prostate): 13.4 µM | TGI (OVCAR-5 ovarian): 24.1 µM | TGI (A498 renal): 9.9 µM | TGI (KM12 colon): > 50 µM | TGI (786-0 renal): 27.7 µM | TGI (SK-OV-3 ovarian): 24.7 µM | TGI (LOX IMVI melanoma): 23.1 µM | TGI (K-562 leukemia): > 48.4 µM | TGI (OVCAR-4 ovarian): 36.7 µM | TGI (OVCAR-3 ovarian): 15.9 µM

Cc1cc(N(C)c2ccccc2)nc(N(C)c2ccccc2)n1
TGI (SF-295 CNS): 92.5 µM | TGI (M14 melanoma): > 100 µM | TGI (UACC-62 melanoma): > 100 µM | TGI (SK-MEL-2 melanoma): 36.9 µM | TGI (MDA-MB-435): > 100 µM | TGI (TK-10 renal): > 100 µM | TGI (CCRF-CEM leukemia): 46.5 µM | TGI (PC-3 prostate): > 100 µM | TGI (OVCAR-5 ovarian): 52.6 µM | TGI (A498 renal): > 100 µM | TGI (KM12 colon): 45.7 µM | TGI (786-0 renal): > 100 µM | TGI (SK-OV-3 ovarian): > 100 µM | TGI (LOX IMVI melanoma): 27.9 µM | TGI (K-562 leukemia): > 100 µM | TGI (OVCAR-4 ovarian): > 100 µM | TGI (OVCAR-3 ovarian): 70.4 µM

CC(=O)n1nc(-c2[nH]c(C)c(-c3nn(C(C)=O)c(=S)o3)c2C)oc1=S
TGI (SF-295 CNS): > 100 µM | TGI (M14 melanoma): > 100 µM | TGI (UACC-62 melanoma): > 100 µM | TGI (SK-MEL-2 melanoma): > 100 µM | TGI (MDA-MB-435): > 100 µM | TGI (TK-10 renal): > 100 µM | TGI (CCRF-CEM leukemia): > 71.4 µM | TGI (PC-3 prostate): > 100 µM | TGI (OVCAR-5 ovarian): > 100 µM | TGI (A498 renal): > 100 µM | TGI (KM12 colon): > 100 µM | TGI (786-0 renal): > 100 µM | TGI (SK-OV-3 ovarian): > 100 µM | TGI (LOX IMVI melanoma): > 100 µM | TGI (K-562 leukemia): > 100 µM | TGI (OVCAR-4 ovarian): > 100 µM | TGI (OVCAR-3 ovarian): > 100 µM

COC(=O)C1=C(N)C2=C(N)Oc3ccccc3C2CC1=C(C#N)C#N (centres undefined)
TGI (SF-295 CNS): 90.2 µM | TGI (M14 melanoma): 43.3 µM | TGI (UACC-62 melanoma): 36.3 µM | TGI (SK-MEL-2 melanoma): > 100 µM | TGI (MDA-MB-435): > 100 µM | TGI (TK-10 renal): 52 µM | TGI (CCRF-CEM leukemia): > 100 µM | TGI (PC-3 prostate): > 100 µM | TGI (OVCAR-5 ovarian): 81.7 µM | TGI (A498 renal): 68.6 µM | TGI (KM12 colon): 29.5 µM | TGI (786-0 renal): > 100 µM | TGI (SK-OV-3 ovarian): > 100 µM | TGI (LOX IMVI melanoma): 44.2 µM | TGI (K-562 leukemia): 57.3 µM | TGI (OVCAR-4 ovarian): 76.1 µM | TGI (OVCAR-3 ovarian): > 100 µM

CSc1ncc2c(C#N)c3n(C)c4ccccc4n3c(=O)c2n1
TGI (SF-295 CNS): > 100 µM | TGI (M14 melanoma): > 100 µM | TGI (UACC-62 melanoma): > 100 µM | TGI (SK-MEL-2 melanoma): > 100 µM | TGI (MDA-MB-435): > 100 µM | TGI (TK-10 renal): > 100 µM | TGI (CCRF-CEM leukemia): > 100 µM | TGI (PC-3 prostate): > 100 µM | TGI (OVCAR-5 ovarian): > 100 µM | TGI (A498 renal): > 100 µM | TGI (KM12 colon): > 100 µM | TGI (786-0 renal): > 100 µM | TGI (SK-OV-3 ovarian): > 100 µM | TGI (LOX IMVI melanoma): > 100 µM | TGI (K-562 leukemia): > 100 µM | TGI (OVCAR-4 ovarian): > 100 µM | TGI (OVCAR-3 ovarian): > 100 µM
